Data taken from ChEMBL document CHEMBL4507313, “Data for DCP probe BAY-179” (2021).
pKi: −log10 of the molar value.

What was measured:
[1] = molecular target: T1, 5-hydroxytryptamine receptor 2B (Homo sapiens, UniProt P41595); test: GPCRScan assay: inhibition of 5-HT2B; set-up: radioligand conc. used [nm] 1.0 – 2.0, parental cells stable HEK; conditions: for pKi: read-out: Ki; for Ki: read-out: pKi (converted)
[2] = molecular target: 5-hydroxytryptamine receptor 3A (Homo sapiens, UniProt P46098); test: GPCRScan assay: inhibition of 5-HT3; set-up: radioligand conc. used [nm] 1.0 – 2.0, parental cells HEKT
[3] = molecular target: T2, 5-hydroxytryptamine receptor 6 (Homo sapiens, UniProt P50406); test: GPCRScan assay: inhibition of 5-HT6; set-up: radioligand conc. used [nm] 2.0 – 4.0, parental cells stable HEK
[4] = molecular target: Alpha-2C adrenergic receptor (Homo sapiens, UniProt P18825); test: GPCRScan assay: inhibition of Alpha2C; set-up: radioligand conc. used [nm] 0.5 – 1.0, parental cells stable MDCK
[5] = molecular target: Muscarinic acetylcholine receptor M2 (Homo sapiens, UniProt P08172); test: GPCRScan assay: inhibition of M2; set-up: radioligand conc. used [nm] 0.2 – 1.0, parental cells stable CHO
[6] = molecular target: T3, Sigma intracellular receptor 2 (Homo sapiens, UniProt Q5BJF2); test: GPCRScan assay: inhibition of Sigma 2; set-up: radioligand conc. used [nm] 5.0, parental cells HEKT; conditions: for pKi: read-out: Ki
[7] = molecular target: T4, Sigma non-opioid intracellular receptor 1 (Homo sapiens, UniProt Q99720); test: GPCRScan assay: inhibition of Sigma 1; set-up: radioligand conc. used [nm] 4.0 – 5.0, parental cells HEKT
[8] = BXF135 2 cell line Proliferation assay; assay type: functional, Homo sapiens; conditions: Cell line Patient derived
MKN-1 = test: MKN1 cell line Proliferation assay; assay type: functional, Homo sapiens
[9] = BXF121 8 cell line Proliferation assay; assay type: functional, Homo sapiens; conditions: Cell line Patient derived
LS174T = test: LS174T cell line Proliferation assay; assay type: functional, Homo sapiens
[10] = GXF25 1 cell line Proliferation assay; assay type: functional, Homo sapiens; conditions: Cell line Patient derived
[11] = LXFA62 9 cell line Proliferation assay; assay type: functional, Homo sapiens, LXF 629L; conditions: Cell line Patient derived
BG-1 cell line = test: BG1 cell line Proliferation assay; assay type: functional, Homo sapiens
Caco-2 = test: Caco-2 cell line Proliferation assay; assay type: functional, Homo sapiens
SK-MEL-28 = test: SK- MEL-28 cell line Proliferation assay; assay type: functional, Homo sapiens
RKO = test: RKO cell line Proliferation assay; assay type: functional, Homo sapiens
LOX IMVI = test: LOX cell line Proliferation assay; assay type: functional, Homo sapiens
[12] = molecular target: 5-hydroxytryptamine receptor 1A (Homo sapiens) (UniProt P08908); conditions: Compound concentration 10.0 uM
[13] = molecular target: 5-hydroxytryptamine receptor 1B (Homo sapiens) (UniProt P28222); conditions: Compound concentration 10.0 uM
[14] = molecular target: 5-hydroxytryptamine receptor 1D (Homo sapiens) (UniProt P28221); conditions: Compound concentration 10.0 uM
[15] = molecular target: 5-hydroxytryptamine receptor 1E (Homo sapiens) (UniProt P28566); conditions: Compound concentration 10.0 uM
[16] = molecular target: 5-hydroxytryptamine receptor 2A (Homo sapiens) (UniProt P28223); conditions: Compound concentration 10.0 uM
[17] = molecular target: T1, 5-hydroxytryptamine receptor 2B; conditions: Compound concentration 10.0 uM
[18] = molecular target: 5-hydroxytryptamine receptor 2C (Homo sapiens) (UniProt P28335); conditions: Compound concentration 10.0 uM
[19] = molecular target: 5-hydroxytryptamine receptor 3A (Homo sapiens) (UniProt P46098); conditions: Compound concentration 10.0 uM
[20] = molecular target: 5-hydroxytryptamine receptor 5A (Homo sapiens) (UniProt P47898); conditions: Compound concentration 10.0 uM
[21] = molecular target: T2, 5-hydroxytryptamine receptor 6; conditions: Compound concentration 10.0 uM
[22] = molecular target: 5-hydroxytryptamine receptor 7 (Homo sapiens) (UniProt P34969); conditions: Compound concentration 10.0 uM
[23] = molecular target: D(1A) dopamine receptor (Homo sapiens) (UniProt P21728); conditions: Compound concentration 10.0 uM
[24] = molecular target: D(2) dopamine receptor (Homo sapiens) (UniProt P14416); conditions: Compound concentration 10.0 uM
[25] = molecular target: D(3) dopamine receptor (Homo sapiens) (UniProt P35462); conditions: Compound concentration 10.0 uM
[26] = molecular target: D(4) dopamine receptor (Homo sapiens) (UniProt P21917); conditions: Compound concentration 10.0 uM
[27] = molecular target: D(1B) dopamine receptor (Homo sapiens) (UniProt P21918); conditions: Compound concentration 10.0 uM
[28] = molecular target: Sodium-dependent serotonin transporter (Homo sapiens) (UniProt P31645); conditions: Compound concentration 10.0 uM
[29] = molecular target: Mu-type opioid receptor (Homo sapiens) (UniProt P35372); conditions: Compound concentration 10.0 uM
[30] = molecular target: Delta-type opioid receptor (Homo sapiens) (UniProt P41143); conditions: Compound concentration 10.0 uM
[31] = molecular target: Kappa-type opioid receptor (Homo sapiens) (UniProt P41145); conditions: Compound concentration 10.0 uM
[32] = molecular target: T5, GABA-A receptor; anion channel (Rattus norvegicus) (UniProt O09028+P15431+P18506+P18508+P19969+P20236+P23574+P23576+P28471+P28473+P30191+P62813+P63079+P63138+Q91ZM7+Q9ES14); conditions: Compound concentration 10.0 uM
[33] = molecular target: Histamine H1 receptor (Homo sapiens) (UniProt P35367); conditions: Compound concentration 10.0 uM
[34] = molecular target: Histamine H2 receptor (Homo sapiens) (UniProt P25021); conditions: Compound concentration 10.0 uM
[35] = molecular target: Histamine H3 receptor (Homo sapiens) (UniProt Q9Y5N1); conditions: Compound concentration 10.0 uM
[36] = molecular target: Histamine H4 receptor (Homo sapiens) (UniProt Q9H3N8); conditions: Compound concentration 10.0 uM
[37] = molecular target: Alpha-1A adrenergic receptor (Homo sapiens) (UniProt P35348); conditions: Compound concentration 10.0 uM
[38] = molecular target: Alpha-1B adrenergic receptor (Homo sapiens) (UniProt P35368); conditions: Compound concentration 10.0 uM
[39] = molecular target: Alpha-2A adrenergic receptor (Homo sapiens) (UniProt P08913); conditions: Compound concentration 10.0 uM
[40] = molecular target: Alpha-2B adrenergic receptor (Homo sapiens) (UniProt P18089); conditions: Compound concentration 10.0 uM
[41] = molecular target: Alpha-2C adrenergic receptor (Homo sapiens) (UniProt P18825); conditions: Compound concentration 10.0 uM
[42] = molecular target: Beta-1 adrenergic receptor (Homo sapiens) (UniProt P08588); conditions: Compound concentration 10.0 uM
[43] = molecular target: Beta-2 adrenergic receptor (Homo sapiens) (UniProt P07550); conditions: Compound concentration 10.0 uM
[44] = molecular target: Muscarinic acetylcholine receptor M1 (Homo sapiens) (UniProt P11229); conditions: Compound concentration 10.0 uM
[45] = molecular target: Muscarinic acetylcholine receptor M2 (Homo sapiens) (UniProt P08172); conditions: Compound concentration 10.0 uM
[46] = molecular target: Muscarinic acetylcholine receptor M3 (Homo sapiens) (UniProt P20309); conditions: Compound concentration 10.0 uM
[47] = molecular target: Muscarinic acetylcholine receptor M4 (Homo sapiens) (UniProt P08173); conditions: Compound concentration 10.0 uM
[48] = molecular target: Muscarinic acetylcholine receptor M5 (Homo sapiens) (UniProt P08912); conditions: Compound concentration 10.0 uM
[49] = molecular target: Beta-3 adrenergic receptor (Homo sapiens) (UniProt P13945); conditions: Compound concentration 10.0 uM
[50] = molecular target: T5, GABA-A receptor; anion channel (Rattus norvegicus); conditions: Compound concentration 10.0 uM; remark: listed apart in the source
Rattus norvegicus = species: Rattus norvegicus; conditions: Compound concentration 10.0 uM
[51] = molecular target: Alpha-1D adrenergic receptor (Homo sapiens) (UniProt P25100); conditions: Compound concentration 10.0 uM
[52] = molecular target: T3, Sigma intracellular receptor 2; conditions: Compound concentration 10.0 uM
[53] = molecular target: T4, Sigma non-opioid intracellular receptor 1; conditions: Compound concentration 10.0 uM
[54] = molecular target: Sodium-dependent noradrenaline transporter (Homo sapiens) (UniProt P23975); conditions: Compound concentration 10.0 uM
[55] = molecular target: Sodium-dependent dopamine transporter (Homo sapiens) (UniProt Q01959); conditions: Compound concentration 10.0 uM

T4 sequence (Q99720 whole entry): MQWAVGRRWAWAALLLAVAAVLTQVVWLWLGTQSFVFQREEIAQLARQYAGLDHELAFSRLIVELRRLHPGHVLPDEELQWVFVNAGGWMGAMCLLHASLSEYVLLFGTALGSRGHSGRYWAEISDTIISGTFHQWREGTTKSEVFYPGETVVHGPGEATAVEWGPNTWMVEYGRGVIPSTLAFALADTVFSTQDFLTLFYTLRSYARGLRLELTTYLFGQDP
T2 sequence (P50406 whole entry): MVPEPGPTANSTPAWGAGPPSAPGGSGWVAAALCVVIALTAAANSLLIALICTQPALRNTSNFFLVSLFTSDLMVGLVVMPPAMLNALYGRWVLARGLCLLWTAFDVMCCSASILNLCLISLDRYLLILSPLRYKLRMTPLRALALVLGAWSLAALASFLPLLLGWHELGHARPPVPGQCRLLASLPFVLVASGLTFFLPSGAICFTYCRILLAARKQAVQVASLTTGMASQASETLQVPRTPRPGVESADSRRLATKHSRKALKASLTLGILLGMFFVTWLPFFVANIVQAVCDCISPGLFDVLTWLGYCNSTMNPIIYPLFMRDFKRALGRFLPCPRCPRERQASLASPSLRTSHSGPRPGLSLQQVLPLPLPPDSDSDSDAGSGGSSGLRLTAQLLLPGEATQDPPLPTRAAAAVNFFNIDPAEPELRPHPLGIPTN
T1 sequence (P41595 whole entry): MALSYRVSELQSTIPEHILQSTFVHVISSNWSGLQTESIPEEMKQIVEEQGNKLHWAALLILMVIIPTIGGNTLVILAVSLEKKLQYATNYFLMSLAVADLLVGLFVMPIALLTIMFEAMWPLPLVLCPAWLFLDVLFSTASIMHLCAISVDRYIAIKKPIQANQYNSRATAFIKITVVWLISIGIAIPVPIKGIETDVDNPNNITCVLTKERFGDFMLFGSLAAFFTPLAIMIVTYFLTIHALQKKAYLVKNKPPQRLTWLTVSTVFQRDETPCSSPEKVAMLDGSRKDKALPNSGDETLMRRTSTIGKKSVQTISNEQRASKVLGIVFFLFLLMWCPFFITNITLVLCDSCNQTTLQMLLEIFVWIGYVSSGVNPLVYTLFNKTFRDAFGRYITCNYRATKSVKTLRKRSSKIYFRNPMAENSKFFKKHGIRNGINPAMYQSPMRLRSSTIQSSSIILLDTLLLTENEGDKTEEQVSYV
T3 sequence (Q5BJF2 whole entry): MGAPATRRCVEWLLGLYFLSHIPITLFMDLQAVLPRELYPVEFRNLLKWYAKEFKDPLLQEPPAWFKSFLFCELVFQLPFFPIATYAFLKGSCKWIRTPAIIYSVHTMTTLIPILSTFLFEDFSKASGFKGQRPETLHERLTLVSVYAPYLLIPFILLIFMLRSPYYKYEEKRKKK
5-hydroxytryptamine receptor 5A (Homo sapiens), sequence (P47898 whole entry): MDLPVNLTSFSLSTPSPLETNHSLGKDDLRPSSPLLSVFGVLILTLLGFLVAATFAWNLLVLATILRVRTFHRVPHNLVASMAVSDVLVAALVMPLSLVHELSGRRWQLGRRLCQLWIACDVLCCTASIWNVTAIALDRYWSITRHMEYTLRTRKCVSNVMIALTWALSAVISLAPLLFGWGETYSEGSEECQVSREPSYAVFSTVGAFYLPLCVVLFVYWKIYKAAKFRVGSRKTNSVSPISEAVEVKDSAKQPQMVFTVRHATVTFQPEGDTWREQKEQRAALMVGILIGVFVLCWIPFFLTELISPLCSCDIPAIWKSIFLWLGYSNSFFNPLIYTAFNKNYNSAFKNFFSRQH
D(4) dopamine receptor (Homo sapiens), sequence (P21917 whole entry): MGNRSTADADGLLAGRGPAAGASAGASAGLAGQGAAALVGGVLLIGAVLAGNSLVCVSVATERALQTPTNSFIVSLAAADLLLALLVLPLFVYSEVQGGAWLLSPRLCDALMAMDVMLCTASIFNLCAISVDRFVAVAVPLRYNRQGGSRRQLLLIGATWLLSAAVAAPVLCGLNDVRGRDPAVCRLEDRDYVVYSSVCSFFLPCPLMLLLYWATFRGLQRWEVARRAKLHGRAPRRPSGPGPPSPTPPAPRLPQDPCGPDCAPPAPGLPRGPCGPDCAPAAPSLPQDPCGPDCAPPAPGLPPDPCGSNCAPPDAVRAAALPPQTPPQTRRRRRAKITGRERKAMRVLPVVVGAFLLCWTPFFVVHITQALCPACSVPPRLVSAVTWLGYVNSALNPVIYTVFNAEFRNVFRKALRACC
5-hydroxytryptamine receptor 7 (Homo sapiens), sequence (P34969 whole entry): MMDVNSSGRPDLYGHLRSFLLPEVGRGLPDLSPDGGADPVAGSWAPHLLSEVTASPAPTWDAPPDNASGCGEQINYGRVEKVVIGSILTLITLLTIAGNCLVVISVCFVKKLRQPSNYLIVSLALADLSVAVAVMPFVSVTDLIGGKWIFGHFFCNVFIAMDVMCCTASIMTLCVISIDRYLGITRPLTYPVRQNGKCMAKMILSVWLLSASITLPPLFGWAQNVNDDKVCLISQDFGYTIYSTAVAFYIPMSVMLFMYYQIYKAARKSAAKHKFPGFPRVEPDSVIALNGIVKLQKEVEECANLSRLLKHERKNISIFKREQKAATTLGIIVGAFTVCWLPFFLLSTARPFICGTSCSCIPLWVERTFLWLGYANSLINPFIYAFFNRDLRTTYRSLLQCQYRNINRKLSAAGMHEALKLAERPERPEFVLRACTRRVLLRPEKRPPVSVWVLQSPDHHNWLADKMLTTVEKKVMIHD
5-hydroxytryptamine receptor 3A (Homo sapiens), sequence (P46098 whole entry): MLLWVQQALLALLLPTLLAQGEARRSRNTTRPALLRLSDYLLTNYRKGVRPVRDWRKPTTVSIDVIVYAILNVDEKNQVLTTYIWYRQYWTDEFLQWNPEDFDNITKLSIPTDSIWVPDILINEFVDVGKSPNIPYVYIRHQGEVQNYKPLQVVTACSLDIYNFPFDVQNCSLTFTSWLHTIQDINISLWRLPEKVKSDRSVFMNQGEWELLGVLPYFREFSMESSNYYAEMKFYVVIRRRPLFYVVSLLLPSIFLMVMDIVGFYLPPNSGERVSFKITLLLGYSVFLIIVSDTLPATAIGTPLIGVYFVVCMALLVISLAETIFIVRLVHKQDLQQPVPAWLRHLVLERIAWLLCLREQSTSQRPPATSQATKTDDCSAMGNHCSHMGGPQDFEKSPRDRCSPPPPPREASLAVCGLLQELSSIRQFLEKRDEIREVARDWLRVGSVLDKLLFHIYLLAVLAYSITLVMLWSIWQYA
5-hydroxytryptamine receptor 3A, sequence (P46098 whole entry): as above
D(2) dopamine receptor (Homo sapiens), sequence (P14416 whole entry): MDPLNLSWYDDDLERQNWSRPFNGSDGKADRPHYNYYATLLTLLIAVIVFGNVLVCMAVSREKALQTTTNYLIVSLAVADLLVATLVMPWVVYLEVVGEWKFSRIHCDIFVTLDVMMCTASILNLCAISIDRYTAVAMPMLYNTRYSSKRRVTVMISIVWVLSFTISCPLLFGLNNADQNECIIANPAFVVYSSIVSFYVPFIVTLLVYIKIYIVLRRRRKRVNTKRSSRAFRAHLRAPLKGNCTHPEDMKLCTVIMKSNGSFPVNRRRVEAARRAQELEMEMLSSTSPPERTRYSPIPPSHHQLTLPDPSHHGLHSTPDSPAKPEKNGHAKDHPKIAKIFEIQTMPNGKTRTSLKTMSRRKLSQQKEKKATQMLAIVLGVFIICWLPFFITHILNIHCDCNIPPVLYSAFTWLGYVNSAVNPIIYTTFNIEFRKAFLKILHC
Alpha-2A adrenergic receptor (Homo sapiens), sequence (P08913 whole entry): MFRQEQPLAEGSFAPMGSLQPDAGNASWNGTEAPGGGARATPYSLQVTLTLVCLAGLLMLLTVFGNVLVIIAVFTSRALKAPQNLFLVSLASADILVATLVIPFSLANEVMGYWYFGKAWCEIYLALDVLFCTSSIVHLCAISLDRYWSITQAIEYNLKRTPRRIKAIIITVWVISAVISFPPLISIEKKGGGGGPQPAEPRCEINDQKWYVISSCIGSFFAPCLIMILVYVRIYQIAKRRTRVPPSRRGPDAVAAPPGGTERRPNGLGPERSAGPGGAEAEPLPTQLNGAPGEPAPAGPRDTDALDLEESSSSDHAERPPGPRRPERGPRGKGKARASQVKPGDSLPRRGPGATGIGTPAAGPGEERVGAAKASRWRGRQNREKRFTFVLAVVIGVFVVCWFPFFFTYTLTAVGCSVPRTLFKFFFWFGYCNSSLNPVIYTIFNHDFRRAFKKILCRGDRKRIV
Delta-type opioid receptor (Homo sapiens), sequence (P41143 whole entry): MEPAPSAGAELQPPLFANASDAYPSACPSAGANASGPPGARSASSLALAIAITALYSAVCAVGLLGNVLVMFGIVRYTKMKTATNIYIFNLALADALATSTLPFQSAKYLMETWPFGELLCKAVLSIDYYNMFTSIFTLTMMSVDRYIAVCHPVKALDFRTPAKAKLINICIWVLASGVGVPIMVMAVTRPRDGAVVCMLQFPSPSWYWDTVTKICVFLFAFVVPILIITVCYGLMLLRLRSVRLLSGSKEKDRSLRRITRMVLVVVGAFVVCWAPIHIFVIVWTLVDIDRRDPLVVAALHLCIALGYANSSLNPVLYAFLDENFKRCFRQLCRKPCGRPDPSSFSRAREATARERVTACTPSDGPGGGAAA
Beta-1 adrenergic receptor (Homo sapiens), sequence (P08588 whole entry, looked up): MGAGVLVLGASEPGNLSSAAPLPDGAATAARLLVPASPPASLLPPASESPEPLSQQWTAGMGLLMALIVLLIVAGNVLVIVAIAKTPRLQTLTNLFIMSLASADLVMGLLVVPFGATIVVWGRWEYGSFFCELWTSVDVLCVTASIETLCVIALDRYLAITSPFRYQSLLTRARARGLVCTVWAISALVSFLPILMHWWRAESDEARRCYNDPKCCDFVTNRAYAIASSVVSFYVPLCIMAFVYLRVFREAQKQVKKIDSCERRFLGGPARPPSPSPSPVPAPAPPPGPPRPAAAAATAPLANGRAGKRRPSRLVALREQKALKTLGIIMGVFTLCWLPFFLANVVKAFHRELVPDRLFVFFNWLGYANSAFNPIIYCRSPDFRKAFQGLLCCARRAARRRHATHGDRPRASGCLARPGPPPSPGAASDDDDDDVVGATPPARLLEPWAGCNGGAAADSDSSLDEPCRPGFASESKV

Structure (SMILES): c1ccc2oc(-c3csc(C4CCN(Cc5nc6ncccc6[nH]5)CC4)n3)cc2c1
- pKi [1]: 6.25
- Ki [1]: 550 nM
- pKi ([2]; read-out: Ki): 5.26
- Ki ([2]; read-out: pKi (converted)): 5370 nM
- pKi [3]: 5.28
- pKi [4]: 5.46
- pKi ([5]; read-out: Ki): 5.26
- Ki ([5]; read-out: pKi (converted)): 4420 nM
- pKi [6]: 5.95
- Ki ([6]; read-out: pKi (converted)): 1100 nM
- pKi [7]: 5.93
- Cell Proliferation EC50 [8]: 23 nM
- Cell Proliferation EC70 [8]: 48 nM
- Cell Proliferation EC50 (MKN-1): 34 nM
- Cell Proliferation EC70 (MKN-1): 85 nM
- Cell Proliferation EC50 [9]: 65 nM
- Cell Proliferation EC70 [9]: 104 nM
- Cell Proliferation EC50 (LS174T): 43 nM
- Cell Proliferation EC70 (LS174T): 109 nM
- Cell Proliferation EC50 [10]: 81 nM
- Cell Proliferation EC70 [10]: 147 nM
- Cell Proliferation EC50 [11]: 66 nM
- Cell Proliferation EC70 [11]: 195 nM
- Cell Proliferation EC50 (BG-1 cell line): 142 nM
- Cell Proliferation EC70 (BG-1 cell line): 207 nM
- Cell Proliferation EC50 (Caco-2): 129 nM
- Cell Proliferation EC70 (Caco-2): 209 nM
- Cell Proliferation EC50 (SK-MEL-28): 75 nM
- Cell Proliferation EC70 (SK-MEL-28): 215 nM
- Cell Proliferation EC50 (RKO): 153 nM
- Cell Proliferation EC70 (RKO): 251 nM
- Cell Proliferation EC50 (LOX IMVI): 126 nM
- Cell Proliferation EC70 (LOX IMVI): 335 nM
- inhibition [12]: 16.4%
- inhibition [13]: 16%
- inhibition [14]: 16.9%
- inhibition [15]: 30.9%
- inhibition [16]: 5.87%
- inhibition [17]: 74.5%
- inhibition [18]: 20.2%
- inhibition [19]: 72.1%
- inhibition [20]: 19.9%
- inhibition [21]: 72.4%
- inhibition [22]: 40.9%
- inhibition [23]: -2.56%
- inhibition [24]: 5.5%
- inhibition [25]: 28.6%
- inhibition [26]: 16.5%
- inhibition [27]: 5.5%
- inhibition [28]: 40.3%
- inhibition [29]: 22.4%
- inhibition [30]: 22%
- inhibition [31]: 21.6%
- inhibition [32]: 7.9%
- inhibition [33]: 37.4%
- inhibition [34]: 14.8%
- inhibition [35]: -4.94%
- inhibition [36]: 2.33%
- inhibition [37]: 15.5%
- inhibition [38]: 35.7%
- inhibition [39]: 32.1%
- inhibition [40]: 28.7%
- inhibition [41]: 53.4%
- inhibition [42]: 20.9%
- inhibition [43]: 25.4%
- inhibition [44]: 1.7%
- inhibition [45]: 54.2%
- inhibition [46]: -0.2%
- inhibition [47]: -4.61%
- inhibition [48]: -7.72%
- inhibition [49]: 11.7%
- inhibition [50]: 48.3%
- inhibition (Rattus norvegicus): 20.2%
- inhibition [51]: 9.84%
- inhibition [52]: 78.1%
- inhibition [53]: 55.4%

Structure (SMILES): Cn1c(-c2csc(C3CCN(CC4=NC5N=CC=CC5N4)CC3)n2)nc2ccccc21 (configuration not stated) [BAY-070]
- pKi [1]: 5.80
- Ki [1]: 1510 nM
- pKi [6]: 6.82
- pKi [7]: 5.89
- inhibition [12]: 10.2%
- inhibition [13]: 4.71%
- inhibition [14]: -0.96%
- inhibition [16]: -4.2%
- inhibition [17]: 72%
- inhibition [18]: 8.59%
- inhibition [19]: 45.1%
- inhibition [20]: 16.2%
- inhibition [21]: 31.4%
- inhibition [22]: 10.1%
- inhibition [24]: 44.6%
- inhibition [25]: 47.6%
- inhibition [26]: 44%
- inhibition [27]: 5.35%
- inhibition [28]: 7.08%
- inhibition [54]: -3.53%
- inhibition [55]: -1.09%
- inhibition [29]: 9.54%
- inhibition [30]: 3.76%
- inhibition [31]: 18.1%
- inhibition [33]: 0.44%
- inhibition [34]: 1.91%
- inhibition [35]: -7.57%
- inhibition [36]: -9.17%
- inhibition [37]: 6.33%
- inhibition [38]: 7.64%
- inhibition [39]: 27.1%
- inhibition [40]: 22%
- inhibition [41]: 19.9%
- inhibition [42]: 19.9%
- inhibition [43]: 23%
- inhibition [44]: 43.4%
- inhibition [45]: 10.1%
- inhibition [46]: 16.1%
- inhibition [47]: 14.7%
- inhibition [48]: 13.5%
- inhibition [49]: 19.5%
- inhibition [50]: -6.05%
- inhibition (Rattus norvegicus): 13.7%
- inhibition [51]: 14.4%
- inhibition [52]: 98%
- inhibition [53]: 80%
